Among the data in patent US10357036B2, “Compounds for controlling arthropods” (priority 2015, dated 2019) are efficacy values, retold here.

For one assay, the system named is Spodoptera frugiperda. As to the kind of experiment: Spodoptera frugiperda spray test. The format is in vivo. The conditions noted are these: after 7 days.
Another assay relates to Phaedon cochleariae. As to the kind of experiment: Phaedon cochleariae spray test. Conditions: 100 g/ha; after 7 days.
A further assay deals with Tetranychus urticae. As to the kind of experiment: Tetranychus urticae spray test, OP-resistant (bean leaf discs). It counts as in vivo. Conditions: 100 g/ha; after 6 days. As to the method:
After 6 days, the efficacy in % is determined.

Turning to `CCC(=O)NCc1cc(-c2cnn(-c3c(Cl)cc(C(F)(C(F)(F)F)C(F)(F)F)cc3Cl)c2)ccc1Br` [Ia-166], the efficacy in the assay on Spodoptera frugiperda (100 g/ha), with Phaedon cochleariae and in the assay on Tetranychus urticae was 100% in each case.
`CC(=O)N(C)Cc1cc(-c2cnn(-c3c(Cl)cc(C(F)(C(F)(F)F)C(F)(F)F)cc3Cl)c2)c(F)cc1Cl` [Ia-110]: the efficacy with Spodoptera frugiperda (100 g/ha) and with Phaedon cochleariae was 100% in each case.
Turning to `CCC(=O)N(C)Cc1cc(-c2cnn(-c3c(Cl)cc(C(F)(C(F)(F)F)C(F)(F)F)cc3OC(F)(F)F)c2)ccc1F` [Ia-27], the efficacy in the assay on Spodoptera frugiperda (100 g/ha), in the assay on Phaedon cochleariae and in the assay with Tetranychus urticae was 100% each time.
For `CC(C)(C)C(=O)NCc1cc(-c2cnn(-c3c(Cl)cc(C(F)(C(F)(F)F)C(F)(F)F)cc3C(F)F)c2)ccc1F` [Ia-62], in the assay on Phaedon cochleariae, the efficacy came to 100%.
Same read-out and setting: under `CC(=O)NCc1cc(-c2cn(-c3c(Cl)cc(C(F)(C(F)(F)F)C(F)(F)F)cc3Cl)cn2)ccc1F` [I-T2-01] stands 100%.
In the case of `CCC(=O)NCc1cc(-c2cnn(-c3c(Cl)cc(C(F)(C(F)(F)F)C(F)(F)F)cc3C#N)c2)ccc1C` [Ia-101], the efficacy in the assay with Spodoptera frugiperda (100 g/ha) and with Phaedon cochleariae was 100% each time.
Consider `CCC(=O)NCc1cc(-c2cnn(-c3c(Cl)cc(C(F)(C(F)(F)F)C(F)(F)F)cc3OC(F)(F)F)c2)ccc1Cl` [Ia-86], for which the efficacy in the assay on Spodoptera frugiperda (100 g/ha) and in the assay on Phaedon cochleariae was 100% throughout.
For the molecule `CC(=O)N(C)Cc1cc(-c2cnn(-c3c(Cl)cc(C(F)(C(F)(F)F)C(F)(F)F)cc3OC(F)(F)F)c2)ccc1Cl` [Ia-85], the efficacy in the assay with Spodoptera frugiperda (100 g/ha), in the assay with Phaedon cochleariae and in the assay on Tetranychus urticae was 100% in each case.
In the assay with Spodoptera frugiperda (100 g/ha), `CCC(=O)NC(C)c1cc(-c2cnn(-c3c(Cl)cc(C(F)(C(F)(F)F)C(F)(F)F)cc3Cl)c2)ccc1F` (stereo not shown) [Ia-50] had an efficacy of 100%.
As for `C[S+]([O-])c1cc(C(F)(C(F)(F)F)C(F)(F)F)cc(Cl)c1-n1cc(-c2ccc(F)c(CNC(=O)C3CC3)c2)cn1` (stereo not shown) [Ia-43], the figures for the efficacy in the assay on Spodoptera frugiperda (20 g/ha), in the assay with Phaedon cochleariae and with Tetranychus urticae were 83%, 100% and 90%, respectively.
In the case of `CCC(=O)NCc1cccc(-c2cnn(-c3c(Cl)cc(C(F)(C(F)(F)F)C(F)(F)F)cc3C(F)F)c2)c1` [Ia-39], the efficacy in the assay on Spodoptera frugiperda (100 g/ha), in the assay with Phaedon cochleariae and in the assay with Tetranychus urticae was 100% in each case.
As for `CCC(=O)NCc1cc(-c2cnn(-c3c(Cl)cc(C(F)(C(F)(F)F)C(F)(F)F)cc3Br)c2)ccc1Cl` [Ia-89], the efficacy is 100% with Spodoptera frugiperda (100 g/ha), 100% with Phaedon cochleariae and 90% in the assay with Tetranychus urticae.
On to `CC(=O)N(C)Cc1cc(-c2cnn(-c3c(Cl)cc(C(F)(C(F)(F)F)C(F)(F)F)cc3Cl)c2)ccc1Br` [Ia-165], for which the efficacy with Spodoptera frugiperda (100 g/ha) was 100%; with Phaedon cochleariae, 100%; in the assay with Tetranychus urticae, 90%.
For `CN(Cc1cc(-c2cnn(-c3c(Cl)cc(C(F)(C(F)(F)F)C(F)(F)F)cc3Cl)c2)ccc1Cl)C(=O)C1CC1` [Ia-24], the efficacy in the assay on Spodoptera frugiperda (100 g/ha) and in the assay with Phaedon cochleariae was 100% in each case.
For the molecule `CCC(=O)N(C)Cc1cc(-c2cnn(-c3c(Cl)cc(C(F)(C(F)(F)F)C(F)(F)F)cc3Cl)c2)ccc1Br` [Ia-167], the efficacy in the assay with Spodoptera frugiperda (100 g/ha), in the assay on Phaedon cochleariae and in the assay with Tetranychus urticae was 100% each time.
In the case of `O=C(NCc1cc(-c2cnn(-c3c(Cl)cc(C(F)(C(F)(F)F)C(F)(F)F)cc3Cl)c2)ccc1Cl)C(F)(F)F` [Ia-120], the efficacy in the assay on Spodoptera frugiperda (100 g/ha), with Phaedon cochleariae and with Tetranychus urticae was 100% throughout.
`CC(=O)NCc1cccc(-c2cnn(-c3c(Cl)cc(C(F)(C(F)(F)F)C(F)(F)F)cc3Cl)c2)c1F` [Ia-153]: the efficacy in the assay with Phaedon cochleariae stood at 100%.
The molecule `CCC(=O)N(C)Cc1cc(-c2cnn(-c3c(Cl)cc(C(F)(C(F)(F)F)C(F)(F)F)cc3Cl)c2)ccc1C(F)(F)F` [Ia-78] gave an efficacy in the assay with Phaedon cochleariae of 100%.
Same read-out and setting: in the case of `Cc1cc(C(F)(C(F)(F)F)C(F)(F)F)cc(Cl)c1-n1cc(-c2cccc(CNC(=O)C3CC3)c2)cn1` [Ia-70] it was 100%.
`CC(=S)N(C)Cc1cc(-c2cnn(-c3c(Cl)cc(C(F)(C(F)(F)F)C(F)(F)F)cc3Cl)c2)ccc1Cl` [Ia-163]: the values for the efficacy with Spodoptera frugiperda (100 g/ha), with Phaedon cochleariae and in the assay on Tetranychus urticae were 83%, 100% and 100%, respectively.
As to “N-[1-(2-chloro-5-{1-[2,6-dichloro-4-(1,1,1,2,3,3,3-heptafluoropropan-2-yl)phenyl]-1H-pyrazol-4-yl}phenyl)ethyl]propanamide [Ia-47]”, the figures for the efficacy with Spodoptera frugiperda (100 g/ha) and with Phaedon cochleariae were 83% and 100%, respectively.
For `CC(=O)NC(C)c1cc(-c2cnn(-c3c(Cl)cc(C(F)(C(F)(F)F)C(F)(F)F)cc3Cl)c2)ccc1F` (stereo not shown) [Ia-49] the same measures were 100% and 100%.
As to `CCC(=O)NCc1cccc(-c2cnn(-c3c(Cl)cc(C(F)(C(F)(F)F)C(F)(F)F)cc3C#N)c2)c1` [Ia-97], in the assay with Phaedon cochleariae, the efficacy was 100%.
Turning to `O=C(NCc1cc(-c2cn(-c3c(Cl)cc(C(F)(C(F)(F)F)C(F)(F)F)cc3Cl)nn2)ccc1Cl)C1CC1` [I-T7-03], the efficacy in the assay on Spodoptera frugiperda (100 g/ha) and in the assay with Phaedon cochleariae was 100% in each case.
In the case of `O=C(CC(F)(F)F)NCc1cccc(-c2cnn(-c3c(Cl)cc(C(F)(C(F)(F)F)C(F)(F)F)cc3Cl)c2)c1` [Ia-21], the efficacy with Spodoptera frugiperda (100 g/ha) and in the assay with Phaedon cochleariae was 100% in each case.
Consider `CC(=O)NCc1cc(-c2cnn(-c3c(F)cc(C(F)(C(F)(F)F)C(F)(F)F)cc3Br)c2)ccc1Cl` [Ia-92], for which the efficacy in the assay on Spodoptera frugiperda (100 g/ha), with Phaedon cochleariae and with Tetranychus urticae was 100% throughout.
Take `CC(=O)N(C)Cc1cc(-c2cnn(-c3c(F)cc(C(F)(C(F)(F)F)C(F)(F)F)cc3Br)c2)ccc1Cl` [Ia-100]: the efficacy in the assay with Spodoptera frugiperda (100 g/ha), in the assay on Phaedon cochleariae and in the assay on Tetranychus urticae was 100% each time.
With `CS(=O)(=O)c1cc(C(F)(C(F)(F)F)C(F)(F)F)cc(Cl)c1-n1cc(-c2ccc(F)c(CNC(=O)C3CC3)c2)cn1` [Ia-44], the efficacy in the assay on Phaedon cochleariae and in the assay on Tetranychus urticae was 100% in each case.
In the case of `CC(=O)NCc1cc(-c2cnn(-c3c(Cl)cc(C(F)(C(F)(F)F)C(F)(F)F)cc3OC(F)(F)F)c2)ccc1F` [Ia-06], the efficacy in the assay on Spodoptera frugiperda (100 g/ha) and with Phaedon cochleariae was 100% throughout.
With `CCC(=O)NCc1cc(-c2cnn(-c3c(Cl)cc(C4(C(F)(F)F)CC4)cc3Cl)c2)ccc1F` [Ia-123], the efficacy with Spodoptera frugiperda (100 g/ha) was 83%; in the assay with Phaedon cochleariae, 100%.
For `CCC(=O)NCc1cc(-c2cnn(-c3c(Cl)cc(C(F)(C(F)(F)F)C(F)(F)F)cc3C#N)c2)ccc1Cl` [Ia-114] the same measures were 100% and 100%.
The corresponding values for `O=S(=O)(NCc1cc(-c2cnn(-c3c(Cl)cc(C(F)(C(F)(F)F)C(F)(F)F)cc3Cl)c2)ccc1Cl)c1ccccc1` [Ic-05] are 100% and 100%.
For `CCC(=O)NCc1cc(-c2cn(-c3c(Cl)cc(C(F)(C(F)(F)F)C(F)(F)F)cc3Cl)nn2)ccc1Cl` [I-T7-02] the same measures were 100% and 100%.
Turning to `CCCN(Cc1cc(-c2cnn(-c3c(Cl)cc(C(F)(C(F)(F)F)C(F)(F)F)cc3Cl)c2)ccc1Cl)C(C)=O` [Ia-112], the efficacy came to 100% in the assay on Spodoptera frugiperda (100 g/ha), 100% in the assay on Phaedon cochleariae and 90% in the assay on Tetranychus urticae.
With `O=C(NCc1cc(-c2cnn(-c3c(Cl)cc(C(F)(C(F)(F)F)C(F)(F)F)cc3Cl)c2)ccc1Cl)C(F)F` [Ia-119], the efficacy with Spodoptera frugiperda (100 g/ha), in the assay with Phaedon cochleariae and with Tetranychus urticae was 100% throughout.
In the case of `CCC(=O)NCc1cc(-c2cn(-c3c(Cl)cc(C(F)(C(F)(F)F)C(F)(F)F)cc3Cl)cn2)ccc1F` [I-T2-03], the efficacy in the assay on Phaedon cochleariae was found to be 100%.
For the molecule `CCC(=O)NCc1cc(-c2cnn(-c3c(Cl)cc(C(F)(C(F)(F)F)C(F)(F)F)cc3OC(F)F)c2)cnc1Cl` [Ia-160], the efficacy with Spodoptera frugiperda (100 g/ha), in the assay with Phaedon cochleariae and in the assay on Tetranychus urticae was 100% in each case.
Take `CC(=O)NCc1cccc(-c2cnn(-c3c(Cl)cc(C(F)(C(F)(F)F)C(F)(F)F)cc3Cl)c2)c1` [Ia-09]: the values for the efficacy in the assay on Spodoptera frugiperda (100 g/ha), in the assay with Phaedon cochleariae and in the assay on Tetranychus urticae were 100%, 100% and 90%, respectively.
As for `CCC(=O)N(C)Cc1cc(-c2cnn(-c3c(Cl)cc(C(F)(C(F)(F)F)C(F)(F)F)cc3OC(F)(F)F)c2)ccc1Cl` [Ia-87], the efficacy in the assay with Spodoptera frugiperda (100 g/ha), with Phaedon cochleariae and in the assay on Tetranychus urticae was 100% each time.
In the case of `CCC(=O)NCc1cc(-c2cnn(-c3c(F)cc(C(F)(C(F)(F)F)C(F)(F)F)cc3Br)c2)ccc1Cl` [Ia-94], the efficacy with Spodoptera frugiperda (100 g/ha) and with Phaedon cochleariae was 100% each time.
In turn, `CC(=O)NCc1cc(-c2cnn(-c3c(Cl)cc(C4(C(F)(F)F)CC4)cc3Cl)c2)ccc1F` [Ia-124] yielded an efficacy with Phaedon cochleariae of 100%.
Consider `CCN(Cc1cc(-c2cnn(-c3c(Cl)cc(C(F)(C(F)(F)F)C(F)(F)F)cc3Cl)c2)ccc1Cl)C(C)=O` [Ia-109], for which the efficacy with Spodoptera frugiperda (100 g/ha), in the assay on Phaedon cochleariae and with Tetranychus urticae was 100% throughout.
Regarding `CCC(=O)NCc1cc(-c2cnn(-c3c(Cl)cc(C(F)(C(F)(F)F)C(F)(F)F)cc3C#N)c2)ccc1F` [Ia-103], the efficacy in the assay on Spodoptera frugiperda (100 g/ha) and with Phaedon cochleariae was 100% throughout.
For `CCC(=O)NCc1cc(-c2cnn(-c3c(Cl)cc(C(F)(C(F)(F)F)C(F)(F)F)cc3Cl)c2)c(F)cc1Cl` [Ia-111], the efficacy in the assay on Spodoptera frugiperda (100 g/ha), with Phaedon cochleariae and in the assay on Tetranychus urticae was 100% throughout.
Regarding `CC(=O)N(C)Cc1cc(-c2cnn(-c3c(Cl)cc(C(F)(C(F)(F)F)C(F)(F)F)cc3Br)c2)ccc1Cl` [Ia-99], the efficacy in the assay on Spodoptera frugiperda (100 g/ha), in the assay with Phaedon cochleariae and in the assay with Tetranychus urticae was 100% in each case.
As for `CCC(=O)NCc1cc(-c2cnn(-c3c(Cl)cc(C(F)(C(F)(F)F)C(F)(F)F)cc3Cl)c2)ccc1C` [Ia-81], the efficacy in the assay on Spodoptera frugiperda (100 g/ha) and in the assay with Tetranychus urticae was 100% each time.
